Assay results as given in PMC10450872 (ACS Central Science, 2023).
“And” between values parts separate entries of the source, which are not always exact repeats. Identical values can stand only once.

Legend:
hKOR (OPRK1) = molecular target: T1, hKOR (OPRK1) (Homo sapiens, UniProt P41145); test: cell-based; conditions: for Emax: CHO, read-out: cAMP Emax
T1 construct: 3HA (triple haemagglutinin tag); expressed in transfected cells

hKOR [1] = molecular target: T2, hKOR (Homo sapiens, UniProt P41145); test: cell-based; conditions: for Emax: read-out: βarrestin2 Emax; for EC50: βarrestin2 pEC50
T2 construct: β-galactosidase enzyme fragment for EFC (ProLink tag of the PathHunter system; name and presence on the receptor from own knowledge); host or cells: U2OS-β-arrestin2-EFC-hKOR (PathHunter) cells

hKOR [2] = molecular target: T2, hKOR; type: cell-based
[3] = mean EC50 of inhibition of forskolin-stimulated cAMP accumulation via KOR
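Throughout, for Emax: 100% = maximum response to 10 µM U69,593.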

T1 sequence (P41145 whole entry): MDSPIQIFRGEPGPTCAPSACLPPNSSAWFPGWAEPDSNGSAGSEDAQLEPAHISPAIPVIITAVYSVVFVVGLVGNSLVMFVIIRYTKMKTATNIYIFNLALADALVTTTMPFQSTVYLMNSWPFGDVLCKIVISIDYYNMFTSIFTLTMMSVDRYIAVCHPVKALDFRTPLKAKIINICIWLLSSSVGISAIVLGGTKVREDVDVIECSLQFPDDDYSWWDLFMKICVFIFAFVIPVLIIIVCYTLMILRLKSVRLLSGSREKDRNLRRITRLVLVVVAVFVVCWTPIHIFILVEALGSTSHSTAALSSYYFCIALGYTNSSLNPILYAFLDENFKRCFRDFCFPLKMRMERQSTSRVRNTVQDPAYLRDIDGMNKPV
T2 sequence (P41145 whole entry, the tested form may be a part): as the sequence (P41145 whole entry) above

SMILES	Emax (hKOR (OPRK1))	EC50 (hKOR (OPRK1); cAMP pEC50)	increase of potency on replacement of the 3-furyl (hKOR (OPRK1))	EC50 (hKOR (OPRK1); [3])	Emax (hKOR [1])	EC50 (hKOR [1])	Bias Factor (hKOR [2])	ΔΔLogτ/KA (cAMP/βarr2) (hKOR [2])	cAMP Emax (hKOR (OPRK1))	βarrestin2 Emax (hKOR [1])
COC(=O)[C@@H]1C[C@H](OC(C)=O)C(=O)[C@@H]2[C@H]3C[C@H](c4cccc(O)c4)CC(=O)[C@@H]3CC[C@]21C [22b]	95%	912 nM								
COC(=O)[C@@H]1C[C@H](OC(C)=O)C(=O)[C@@H]2[C@H]3C[C@@H](c4ccnc5ccccc45)CC(=O)[C@@H]3CC[C@]21C [compound 25]	95%	631 nM								
COC(=O)[C@@H]1C[C@H](OC(C)=O)C(=O)[C@@H]2[C@H]3C[C@@H](C4=CCCCC4)CC(=O)[C@@H]3CC[C@]21C [compound 32]			20 fold	0.3 nM						
COC(=O)[C@@H]1C[C@H](OC(C)=O)C(=O)[C@@H]2[C@H]3C[C@@H](c4cccnc4)CC(=O)[C@@H]3CC[C@]21C [compound 20]	105%	468 nM			88%	2040 nM	0.17	5.896		
COC(=O)[C@@H]1C[C@H](OC(C)=O)C(=O)[C@@H]2[C@H]3C[C@@H](c4cccc(C)c4)CC(=O)[C@@H]3CC[C@]21C [compound 30]	105%	14.5 nM		15 nM	115%	794 nM	1.26	0.797		
CON=C1CC(c2ccccc2)CC2C1CCC1(C)C(C(=O)OC)CC(OC(C)=O)C(=O)C21 (centres unmarked) [compound 38]	100%	2.95 nM			98%	245 nM	2.28	0.439		
COC(=O)[C@@H]1C[C@H](OC(C)=O)C(=O)[C@@H]2[C@H]3C[C@@H](c4ccc(C)cc4)CC(=O)[C@@H]3CC[C@]21C [compound 28]	93%	398 nM			14%	1860 nM	3.88	0.258		
COC(=O)C1CC(OC(C)=O)C(=O)C2C3CC(c4ccccc4)CC(=NOC(C)=O)C3CCC12C (centres unmarked) [compound 39]	105%	1.26 nM			83%	97.7 nM	5.43	0.184		
COC(=O)[C@@H]1C[C@H](OC(C)=O)C(=O)[C@@H]2[C@H]3C[C@@H](c4ccsc4)CC(=O)[C@@H]3CC[C@]21C [compound 19]	101%	1.48 nM			105%	72.4 nM	1.11	0.898		
COC(=O)C1CC(OC(C)=O)C(=O)C2C3CC(c4ccoc4)CC(O)C3CCC12C (centres unmarked) [41a]		5.01 nM		5.1 nM		123 nM	1.33	0.754	102	85
COC(=O)[C@@H]1C[C@H](OC(C)=O)C(=O)[C@@H]2[C@H]3C[C@@H](c4ccnc(OC)c4)CC(=O)[C@@H]3CC[C@]21C [compound 23]				3390 nM						
COC(=O)[C@@H]1C[C@H](OC(C)=O)C(=O)[C@@H]2[C@H]3C[C@@H](Sc4ccccc4)CC(=O)[C@@H]3CC[C@]21C [compound 33]	92%			96 nM	131%	4270 nM	0.51	1.946		
COC(=O)[C@@H]1C[C@H](OC(C)=O)C(=O)[C@@H]2[C@H]3C[C@@H](c4ccccc4)CC(=O)[C@@H]3CC[C@]21C [24a]	98%	9.12 nM			120%	219 nM	0.39	2.554		
COC(=O)[C@@H]1C[C@H](OC(C)=O)C(=O)[C@@H]2[C@H]3C[C@@H](c4cccc(Cl)c4)CC(=O)[C@@H]3CC[C@]21C [compound 31]	103%	4.27 nM		4.2 nM	123%	631 nM	2.50	0.399		
COC(=O)[C@@H]1C[C@H](OC(C)=O)C(=O)[C@@H]2[C@H]3C[C@@H](c4ccoc4)CC(=O)[C@@H]3CC[C@]21C [compound 1, O6C-20-nor-SalA]	96%				108%		0.34			
COC(=O)[C@@H]1C[C@H](OC(C)=O)C(=O)[C@@H]2[C@H]3C[C@@H](c4coc5ccccc45)CC(=O)[C@@H]3CC[C@]21C [compound 26]	104%	41.7 nM			100%	2340 nM	1.87	0.536		
COC(=O)[C@@H]1C[C@H](OC(C)=O)C(=O)[C@@H]2[C@H]3C[C@H](c4ccoc4)CC(=O)[C@@H]3CC[C@]21C [compound 18]	91%				91%		0.23			
COC(=O)[C@@H]1C[C@H](OC(C)=O)C(=O)[C@@H]2[C@H]3C[C@@H](c4ccncc4)CC(=O)[C@@H]3CC[C@]21C [compound 21]	93%	302 nM			94%	3310 nM	0.23	4.409		
COC(=O)[C@@H]1C[C@H](OC(C)=O)C(=O)[C@@H]2[C@H]3C[C@@H](c4cccc(O)c4)CC(=O)[C@@H]3CC[C@]21C [22a]	97%	309 nM			81%	5890 nM	0.72	1.397		
C#CC1(O)CC(c2ccccc2)CC2C1CCC1(C)C(C(=O)OC)CC(OC(C)=O)C(=O)C21 (centres unmarked) [40b]	104%			4.4 nM	92%	794 nM	7.44 and 7.4–9.8	0.134		
COC(=O)[C@@H]1C[C@H](OC(C)=O)C(=O)[C@@H]2[C@H]3C[C@@H](c4ccc(Cl)cc4)CC(=O)[C@@H]3CC[C@]21C [compound 29]	103%	67.6 nM			51%	851 nM	3.16	0.316		
COC(=O)[C@@H]1C[C@H](OC(C)=O)C(=O)[C@@H]2[C@H]3C[C@@H](c4c[nH]c5ccccc45)CC(=O)[C@@H]3CC[C@]21C [compound 27]	92%	331 nM			14%	2040 nM	3.96	0.252		
COC(=O)[C@@H]1C[C@H](OC(C)=O)C(=O)[C@@H]2[C@H]3C[C@H](c4ccccc4)CC(=O)[C@@H]3CC[C@]21C [24b]	100%	63.1 nM			109%	891 nM	0.32	3.153		
COC(=O)C1CC(OC(C)=O)C(=O)C2C3CC(c4ccoc4)CC(O)C3CCC12C (centres unmarked) [41b]	103%	0.363 nM		0.4 nM	86%	14.1 nM	2.06	0.486		
C#CC1(O)CC(c2ccccc2)CC2C1CCC1(C)C(C(=O)OC)CC(OC(C)=O)C(=O)C21 (centres unmarked) [40a]				6.9 nM		741 nM	9.83 and 7.4–9.8	0.102	105	80
COC(=O)[C@@H]1C[C@H](OC(C)=O)C(=O)[C@@H]2[C@H]3CC=CC(=O)[C@@H]3CC[C@]21C [17a]	96%	10700 nM		> 10000 nM						
COC(=O)[C@@H]1C[C@H](OC(C)=O)C(=O)[C@@H]2[C@H]3C[C@@H](c4ccccc4)CC(=O)N[C@@H]3CC[C@]21C [compound 35]	107%			46 nM	67%	1820 nM	5.48	0.182		
